Measured values from paper PMC10693084, “Novel 8-Methoxycoumarin-3-Carboxamides with potent anticancer activity against liver cancer via targeting caspase-3/7 and β-tubulin polymerization” (BMC Chemistry, 2023).

Columns and labels:
caspase-3/7 = test: Caspase-3/7 green flow cytometric assay in HepG2 cells; format: cell-based, human; settings: HepG2 cells treated with compound
Excerpt: Caspase-3 is a cysteine-aspartic protease protein that facilitates the enzymatic cleavage of specific target proteins. It consists of two subunits, specifically a 12-kDa subunit and a 17-kDa subunit, which are characterized by the presence of three and five thiol functions, respectively. […] The crucial involvement of the terminal caspase-3/7 activation is observed in the initiation of apoptosis and subsequent cell demise in neoplastic cells. To gain more insight into the apoptotic mode of action for compound 5, we assessed the active caspase-3/7 levels in HepG2 cells utilizing a green flow cytometric assay. […] Compared to the control group of untreated HepG2 cells, there was a remarkable 5.6-fold rise in the levels of active Caspase-3/7 upon treatment with compound 5. […] These findings provide valuable insights into the potential mechanism of action of compound 5 as an anti-cancer agent. Activation of Caspase-3/7 is a pivotal step in the apoptotic pathway, leading to the programmed destruction of cancer cells. […]
The HepG2 cell line was subjected to treatment with compound 5, and subsequently, an analysis was conducted using the Cell Event caspase-3/7 green flow assay. […] Subsequently, the cells were assessed utilizing the BD FACS CALIBER flow cytometer.

HepG2 cells = test: Annexin V-FITC/PI apoptosis screening; format: cell-based, human; settings: HepG2, IC50 concentration, 24 h
Excerpt: Next, we have conducted Annexin V-FITC/PI screening to further investigate the impact of compound 5 on the growth of HepG2 cells and comprehensively analyze programmed cell death. The Annexin V-FITC/PI assay is a widely used method to differentiate between apoptotic and necrotic cells based on their membrane integrity and phospholipid exposure. […] The results from the Annexin V-FITC/PI screening provide crucial insights into the mode of action of compound 5 in inducing cell death in HepG2 cells. Annexin V-FITC is a marker that binds specifically to phosphatidylserine (PS), a phospholipid that becomes externalized on the cell membrane during early apoptosis. Propidium iodide (PI) is a dye that can penetrate cells with compromised membranes, typically found in late-stage apoptosis or necrosis. […] This is important since apoptosis is a highly regulated process, and its induction is a favorable outcome for anti-cancer therapies, as opposed to necrosis, which is often associated with cell death caused by injury or external damage. Overall, these findings from the Annexin V-FITC/PI screening support the ability of compound 5 to induce apoptosis in HepG2 cells and its lack of significant induction of necrosis reinforce its potential as a promising candidate for anti-cancer therapy.
Apoptosis detection in HepG-2 cells was conducted utilizing the BioVision® annexin‐V‐FITC apoptosis detection kit in accordance with the instructions provided by the manufacturer. The quantification of apoptosis was performed using a FACS Calibur flow cytometer, with a wavelength of 488 nm. In a concise manner, a total of 1–5 × 10^5 cells were obtained through the process of centrifugation. The cells were subsequently exposed to compound 5 at concentrations corresponding to its IC50 value for a duration of 24 h. Following this treatment, the cells were resuspended in a binding buffer solution with a volume of 500 μl. The addition of Annexin-V-FITC and PI was performed. Subsequently, the specimens were subjected to incubation at ambient temperature for a duration of 5 min, while being shielded from light. The analysis of Annexin-V-FITC binding was conducted utilizing a dedicated signal detector.

With `COc1ccc(Br)c2cc(C(N)=O)c(=O)oc12` [Compound 5, 5-Bromo-8-methoxycoumarin-3-carboxamide] the “rise in levels of active Caspase-3/7 vs untreated HepG2 cells” value (caspase-3/7) was 5.6 fold, the “fold increase of early apoptosis vs control” value (HepG2 cells) was 42 fold and the “fold increase of late-stage apoptosis vs control” value (HepG2 cells) was 100 fold. For the same compound, the “fold increase of necrosis vs untreated” value (HepG2 cells) was “threefold”, the “fold increase of programmed cell death vs untreated” value (HepG2 cells) was 22 fold and the “percentage of cells in late-stage apoptosis” value (HepG2 cells; control 0.22%) was 22.16%. For the same compound, the “percentage of cells undergoing early apoptosis” value (HepG2 cells; control 0.46%) was 19.51%, the “percentage of cells undergoing necrosis” value (HepG2 cells; untreated 1.4%) was 4.21% and the “total percentage of programmed cell death” value (HepG2 cells; untreated 2.08%) was 45.88%.
